Experimental data published in patent publication US20230028658A1, “EXPANDED DOSAGE REGIMENS FOR INTEGRIN INHIBITORS” (Pliant Therapeutics, Inc., priority 2021, published 2023).

What was measured:
[1] = tested on: Type I Collagen gene Col1a1 expression; test: Precision cut lung slices of mice under acute bleomycin exposure, Col1a1 expression; assay type: cell-based, Mice (C57BL/6); settings: acute bleomycin PCLS, 3 days culture, normalized to DMSO; FIG. 5A
Protocol: Mice (C57BL/6) were administered 3 U/kg of bleomycin (Teva Pharmaceuticals; North Wales, Pa.) on day 0 via oropharyngeal aspiration while under anesthesia. On day 14, precision cut lung slices were obtained. Following euthanization, 2% low gelling temp agarose was injected into the mouse lungs via the trachea. […] The lobes were then subjected to precision slicing to obtain samples for culture using a microtome (Compresstome VF-300-0Z, Precisionary; Greenville, N.C.). Individual slices were distributed in a multiwell culture plate and cultured for 3 days under control (DMSO) and test compound conditions.

[2] = tested on: bleomycin-treated mice; test: Murine bleomycin model; assay type: in vivo, Mice (C57BL/6)
Text: It has been previously shown that inhibition of αvβ6 in the lung can be detected though measurement of phospho-SMAD (pSMAD) in alveolar macrophages. Alveolar macrophages are known to operate in a unique niche in the lung, distinct from interstitial macrophages. SMAD3 is a downstream target of the active TGF-β cytokine binding its receptor and in alveolar macrophages it is phosphorylated by homoeostatic levels of TGF-β. Accordingly, it was desirable to know whether inhibition of TGF-β activation using the disclosed compounds would result in reduced SMAD2 and SMAD3 phosphorylation.
Mice (C57BL/6) were divided into healthy (n=15), vehicle-treated (n=15), and test article-treated (n=15 per dose) groups. Mice in the vehicle and test article-treated groups were administered 3 U/kg of bleomycin (Teva Pharmaceuticals; North Wales, Pa.) via oropharyngeal aspiration while under anesthesia on day 0. Healthy animals were administered water in a similar fashion. Starting on day 7, mice in the control group were administered PBS vehicle, 130 μL, by oral gavage, BID for 14 days. Also starting on day 7, mice in the test group were administered compound 5 in PBS by oral gavage, BID for 14 days, at relative dosages of 1×, 2.5× and 5×. […] From day 14 through day 21, 9 of the 15 mice were administered ^2H2O for labeling. All mice were sacrificed on day 21 and tissues were collected. Samples were prepared for analysis either directly from lung tissue, or by bronchoalveolar lavage, which washes out the bronchiolar and alveolar space with saline to produce a bronchoalveolar lavage fluid (BALF) in which 80-90% of cells are alveolar macrophages.

[3] = tested on: IPF-derived human lung fibroblasts; test: LAP adhesion binding assay, IPF-derived human lung fibroblasts (xCELLigence cell index); assay type: cell-based; settings: FIG. 3B, adhesion to LAP
Protocol: Two latency associated peptide (LAP) adhesion binding assays were devised using primary human lung cells, including normal (healthy) human bronchial epithelial cells and human lung fibroblasts (healthy and IPF).
Human lung fibroblasts derived from normal and IPF lung tissue are known to express αvβ1 integrin. The IPF-derived human lung fibroblasts were prepared for the assay by dissociation with trypsin/EDTA, and were seeded at 20,000 cells per well on 96 well plates (ACEA Bioscience E-plate View, Acea Biosciences; San Diego, Calif.) previously coated with 5 μg/ml of recombinant human LAP (R&D Systems; Minneapolis, Minn.) and blocked with 4% bovine serum albumin. Cell index (electrical impedance) was measured to assess cell attachment/spreading every 3 minutes for 24 hours at 37° C./5% CO2 using the xCELLigence RTCA MP Instrument (Acea Biosciences; San Diego, Calif.). […] In the assay, the IPF-derived human lung fibroblasts were separately incubated with: the αvβ1-selective small molecule inhibitor; the selective antibody αvβ6 inhibitor, 3G9; and compound 5.

COCCN(CCCCc1ccc2c(n1)NCCC2)CC[C@H](Nc1ncnc2ccccc12)C(=O)O [Compound 5, (S)-4-((2-methoxyethyl) (4-(5,6,7,8-tetrahydro-1,8-naphthyridin-2-yl)butyl)amino)-2-(quinazolin-4-ylamino) butanoic acid]
Type I Collagen gene Col1a1 expression [1]: decreased Type I Collagen gene Col1a1 expression substantially
pSMAD3 levels in lung and BALF cells vs. plasma drug exposure ([2]; 14 days after bleomycin, […] dose PO BID 1.5 days, FIGS. 4J, 4K): close inverse relationship
accumulated new collagen (percentage of lung collagen containing 2H-labeled hydroxyproline) ([2]; bleomycin mice, 1× and 5× (p<0.01 vs vehicle), FIG. 4D): dose-dependent reduction
total pulmonary collagen, as measured by μg of hydroxyproline ([2]; bleomycin mice, 1×, […], 5× (p<0.05 vs vehicle), FIG. 4E): reduction in total pulmonary collagen
percent total collagen area in second harmonic generation lung images ([2]; bleomycin mice, 1×, […], 5×, FIG. 4I): substantial, statistically significant dose-dependent reduction
pSMAD3 levels in the lung (SMAD3 phosphorylation) ([2]; bleomycin mice, oral gavage BID 14 days, 1×, […], 5×, FIG. 4C): approximately 50 % of the untreated levels
inhibition of cell adhesion in the IPF-derived lung fibroblasts [3]: substantially inhibited
